Source: paper PMC11243327, “Design, Synthesis, Antitumor, and Antiplasmodial Evaluation of New 7-Chloroquinoline–Benzimidazole Hybrids” (Molecules, 2024)
Counter-ions that a name gives are not always drawn. Like-named read-outs stand apart in the source and are kept apart here.

Assays:
[1] = test system: MRC-5 (human fetal lung fibroblasts); test: Antiproliferative MTT assay, MRC-5; format: cell-based; details: 72 h, mean ± SD of three experiments
Protocol: (§1) The effect of the new synthesized compounds was tested on five human tumor cell lines, HeLa (human cervical adenocarcinoma; from ATCC), CaCo-2 (human colorectal adenocarcinoma), HL-60 (acute promyelocytic leukemia), HuT78 (T-cell lymphoma), and THP-1 (acute monocytic leukemia), as well as one non-tumor cell line, MRC-5 (human fetal lung fibroblasts). The MRC-5 cells were used between 24 and 26 passages. The cells were cultured in two different types of media: DMEM (Gibco Thermo Fisher Scinetific Inc., Runcorn, UK) and RPMI 1640 (Gibco, Thermo Fisher Scinetific Inc., UK). Both media were supplemented with 2 mM glutamine, fetal bovine serum (10%; heat inactivated), and antibiotics (100 U penicillin and 0.1 mg streptomycin). RPMI 1640 was additionally supplemented with 10 mM HEPES and 1 mM sodium pyruvate. Cells growing in a monolayer were cultured in DMEM, while cells growing in suspension were cultured in RPMI 1640. Cells were grown in humidified atmosphere under the conditions of 37 °C/5% CO2 gas in a CO2 incubator (IGO 150 CELLlife^TM, JOUAN, Thermo Fisher Scientific, Waltham, MA, USA).
(§2) Growth-inhibitory activity was assessed using a slightly modified procedure based on the National Cancer Institute’s protocol. Briefly, cells were seeded in 96-well microtiter plates and incubated for 24 h. They were then treated with 10^−7 to 10^−4 M concentrations of the tested compounds for an additional 72 h. After the treatment period, the effects of the tested compounds on the growth rate of the cells were examined using the MTT assay. Absorbance was measured at 595 nm using a microplate reader. The IC50 value, which represents a 50% inhibition of cell growth, and QC calculation were performed using the GraphPadPrism software (La Jolla, USA), v. 5.03. and Excel software, Office 365. The selectivity index was calculated according to the following formula: SI=IC50 value of normal cell line/IC50 value of cancer cell line
(§3) The effect of each concentration was analyzed by plotting the logarithm of the concentration of the evaluated compound against the corresponding percentage inhibition value using least squares.

[2] = test system: HeLa (human cervical adenocarcinoma); test: Antiproliferative MTT assay, HeLa; format: cell-based; details: 72 h, mean ± SD of three experiments
Protocol: as §1, §2, §3

[3] = test system: CaCo-2 (human colorectal adenocarcinoma); test: Antiproliferative MTT assay, CaCo-2; format: cell-based; details: mean ± SD of three experiments
Protocol: as §1, §2, §3

[4] = test system: THP-1 (acute monocytic leukemia); test: Antiproliferative MTT assay, THP-1; format: cell-based, human; details: mean ± SD of three experiments
Protocol: as §1, §2, §3

[5] = test system: HuT78 (T-cell lymphoma); test: Antiproliferative MTT assay, Hut78; format: cell-based, human; details: mean ± SD of three experiments
Protocol: as §1, §2, §3

[6] = test system: HL-60 (acute promyelocytic leukemia); test: Antiproliferative MTT assay, HL-60; format: cell-based, human; details: mean ± SD of three experiments
Protocol: as §1, §2, §3

[7] = test system: P. falciparum 3D7 (CQ-susceptible), erythrocytic stage; test: Antiplasmodial HRP2 assay, Pf3D7; format: cell-based, Plasmodium falciparum; details: read-out: IC50 Pf3D7
Protocol: (§4) Method used to evaluate the antiplasmodial activity of quinoline–benzimidazole hybrids against two P. falciparum strains, chloroquine-sensitive (Pf3D7) and chloroquine-resistant (PfDd2), was previously described. […] Chloroquine was used as a positive control.
(§5) In brief, 96-well plates were pre-coated with the tested compounds at 1:3 dilution before ring-stage parasites were added to the complete culture medium at a hematocrit of 1.5% and a parasitemia of 0.05%. […] All compounds were analyzed in duplicate in at least two independent experiments. The IC50 was determined by nonlinear regression analysis of the logarithmic concentration-response curves using the drc package v3.0-1 of R v4.1.0 [56].

[8] = test system: P. falciparum Dd2 (multiresistant), erythrocytic stage; test: Antiplasmodial HRP2 assay, PfDd2; format: cell-based, Plasmodium falciparum; details: read-out: IC50 PfDd2
Protocol: as §4, §5

[9] = Homo sapiens, MRC5, non-tumor cell line
[10] = Plasmodium falciparum, 3D7, 72 h, chloroquine-sensitive strain, three days incubation, HRP2-ELISA, mean ± SD, n ≥ 2
[11] = Plasmodium falciparum, DD2, 72 h, chloroquine-resistant strain, three days incubation, HRP2-ELISA, mean ± SD, n ≥ 2

Row | Molecule | melting point | IC50 [1, 9] [nM] | IC50 ([2]; Homo sapiens, HeLa) [nM] | IC50 ([3]; Homo sapiens, Caco-2, 72 h) [nM] | IC50 ([4]; Homo sapiens, THP-1, 72 h) [nM] | IC50 ([5]; Homo sapiens, HuT78, 72 h) [nM] | IC50 ([6]; Homo sapiens, HL-60, 72 h) [nM] | IC50 [7, 10] [nM] | IC50 [8, 11] [nM] | other results
1 | N-{2-[4-(1H-benzo[d]imidazole-2-yl)-2-bromophenoxy]propyl}-7-chloroquinolin-4-amine [Compound 14a] | – | – | – | – | – | – | – | – | – | IC50 ([1]; non-tumor cell line): 600 ± 600 nM; IC50 [2]: 1200 ± 700 nM; IC50 ([3]; 72 h): 5000 ± 7300 nM; IC50 ([4]; 72 h): 5100 ± 1700 nM; IC50 ([5]; 72 h): 1700 ± 400 nM; IC50 ([6]; 72 h): 700 ± 500 nM; IC50 ([7]; chloroquine-sensitive strain, three days incubation, HRP2-ELISA, mean ± SD, n ≥ 2): 9.3 ± 0.9 nM; IC50 ([8]; chloroquine-resistant strain, three days incubation, HRP2-ELISA, mean ± SD, n ≥ 2): 13 ± 1.9 nM
2 | COc1cc(-c2nc3ccc(C(=N)NC4CCCC4)cc3[nH]2)ccc1OCCNc1ccnc2cc(Cl)ccc12 (as salt: hydrochloride) [Compound 12d, 2-{3-methoxy-4-[2-(7-chloroquinolin-4-ylamino)ethoxy]phenyl}-N-cyclopentyl-1H-benzo[d]imidazole-5(6)-carboximidamide trihydrochloride] | 226 °C (dec.) | – | – | – | – | – | – | – | – | –
3 | N=C(NC1CCCC1)c1ccc2nc(-c3ccc(OCCCNc4ccnc5cc(Cl)ccc45)cc3)[nH]c2c1 [Compound 13d] | – | 83000 ± 5400 | > 100000 | > 100000 | 14400 ± 3100 | 15200 ± 3000 | 18200 ± 6700 | 57.4 ± 1.9 | 198.3 ± 0.1 | –
4 | Clc1ccc2c(NCCOc3ccc(-c4nc5ccc(Cl)cc5[nH]4)cc3Br)ccnc2c1 [Compound 11b, N-{[2-bromo-4-(5(6)-chloro-1H-benzo[d]imidazole-2-yl)phenoxy]ethyl}-7-chloroquinolin-4-amine] | 238 to 240 °C | 3000 ± 900 | 5400 ± 4600 | 13300 ± 2500 | 4400 ± 5100 | 5800 ± 1900 | 1300 ± 900 | 87.3 ± 3.3 | 88.3 ± 3.1 | –
5 | N=C(NC1CCCC1)c1ccc2nc(-c3ccc(OCCCNc4ccnc5cc(Cl)ccc45)c(Br)c3)[nH]c2c1 (as salt: hydrochloride) [Compound 14d] | 265 °C (dec.) | – | – | – | – | – | – | – | – | –
6 | N=C(NC1CCCC1)c1ccc2nc(-c3ccc(OCCNc4ccnc5cc(Cl)ccc45)c(Br)c3)[nH]c2c1 (as salt: hydrochloride) [Compound 11d, 2-{3-bromo-4-[2-(7-chloroquinolin-4-ylamino)ethoxy]phenyl}-N-cyclopentyl-1H-benzo[d]imidazole-5(6)-carboximidamide trihydrochloride] | 234 °C (dec.) | – | – | – | – | – | – | – | – | –
7 | CCN(CC)CCCC(C)Nc1ccnc2cc(Cl)ccc12 (stereo not drawn) [CQ, Chloroquine, reference compound] | – | – | – | – | – | – | – | – | – | IC50 ([7]; Plasmodium falciparum, 3D7, 72 h): 11.1 ± 0.5 nM; IC50 ([8]; Plasmodium falciparum, DD2, 72 h): 360 ± 27.1 nM
8 | N=C(NC1CCCC1)c1ccc2nc(-c3ccc(OCCCNc4ccnc5cc(Cl)ccc45)cc3)[nH]c2c1 (as salt: hydrochloride) [Compound 13d] | > 275 °C | – | – | – | – | – | – | – | – | –
9 | N=C(NC1CCCC1)c1ccc2nc(-c3ccc(OCCCNc4ccnc5cc(Cl)ccc45)c(Br)c3)[nH]c2c1 [Compound 14d] | – | > 100000 | > 100000 | > 100000 | 100000 | 19700 ± 4000 | 24400 ± 4400 | 159 ± 22.6 | 451 ± 40.3 | –
